Converted amounts (≈) assume the structure as drawn.
Tests used:
[1] = system: Enterococcus faecalis; assay: Antibacterial activity against vancomycin-sensitive Enterococcus faecalis ATCC 29212 by agar dilution method; format: functional
[2] = system: Staphylococcus epidermidis; assay: Antibacterial activity against methicillin-sensitive Staphylococcus epidermidis ATCC 12228 by agar dilution method; format: functional
[3] = system: Pseudomonas aeruginosa; assay: Antibacterial activity against Pseudomonas aeruginosa PAO1 by agar dilution method; format: functional
[4] = system: Salmonella typhi; assay: Antibacterial activity against Salmonella typhi H901 by agar dilution method; format: functional, Salmonella enterica subsp. enterica serovar Typhi; details: Salmonella enterica
[5] = system: Staphylococcus aureus; assay: Antibacterial activity against methicillin-sensitive Staphylococcus aureus 09-6 by agar dilution method; format: functional
[6] = system: Klebsiella pneumoniae; assay: Antibacterial activity against extended-spectrum beta-lactamase-positive Klebsiella pneumoniae 09-25 by agar dilution method; format: functional
[7] = system: Enterococcus faecalis; assay: Antibacterial activity against vancomycin-resistant Enterococcus faecalis 09-9 by agar dilution method; format: functional
[8] = system: Klebsiella pneumoniae; assay: Antibacterial activity against extended-spectrum beta-lactamase-positive Klebsiella pneumoniae ATCC 700603 by agar dilution method; format: functional
[9] = system: Klebsiella pneumoniae; assay: Antibacterial activity against extended-spectrum beta-lactamase-negative Klebsiella pneumoniae 7 by agar dilution method; format: functional
[10] = system: Proteus vulgaris; assay: Antibacterial activity against Proteus vulgaris ATCC 29905 by agar dilution method; format: functional
[11] = system: Acinetobacter calcoaceticus; assay: Antibacterial activity against Acinetobacter calcoaceticus ATCC 19606 by agar dilution method; format: functional
[12] = system: Enterococcus faecium; assay: Antibacterial activity against vancomycin-resistant Enterococcus faecium 05-8 by agar dilution method; format: functional
[13] = system: Klebsiella pneumoniae; assay: Antibacterial activity against extended-spectrum beta-lactamase-negative Klebsiella pneumoniae 09-8 by agar dilution method; format: functional
[14] = system: Enterococcus faecium; assay: Antibacterial activity against vancomycin-sensitive Enterococcus faecium 09-10 by agar dilution method; format: functional
[15] = Cytotoxicity against HEK293T cells after 48 hrs by MTS assay; format: cell-based, HEK-293T; details: human
[16] = system: Escherichia coli; assay: Antibacterial activity against extended-spectrum beta-lactamase-negative Escherichia coli ATCC 25922 by agar dilution method; format: functional
[17] = system: Proteus mirabilis; assay: Antibacterial activity against Proteus mirabilis 09-1 by agar dilution method; format: functional
[18] = system: Staphylococcus aureus; assay: Antibacterial activity against methicillin-sensitive Staphylococcus aureus 15 by agar dilution method; format: functional
[19] = system: Enterococcus faecalis; assay: Antibacterial activity against vancomycin-resistant Enterococcus faecalis ATCC 51299 by agar dilution method; format: functional
[20] = system: Staphylococcus epidermidis; assay: Antibacterial activity against methicillin-resistant Staphylococcus epidermidis 09-3 by agar dilution method; format: functional
[21] = system: Enterococcus faecalis; assay: Antibacterial activity against vancomycin-sensitive Enterococcus faecalis 09-8 by agar dilution method; format: functional
[22] = system: Pseudomonas aeruginosa; assay: Antibacterial activity against Pseudomonas aeruginosa ATCC 27853 by agar dilution method; format: functional
[23] = system: Enterobacter cloacae; assay: Antibacterial activity against Enterobacter cloacae 45301 by agar dilution method; format: functional
[24] = system: Serratia marcescens; assay: Antibacterial activity against Serratia marcescens 41002 by agar dilution method; format: functional
[25] = system: Klebsiella aerogenes; assay: Antibacterial activity against Enterobacter aerogenes 45102 by agar dilution method; format: functional
[26] = system: Providencia rettgeri; assay: Antibacterial activity against Providencia rettgeri ATCC 31052 by agar dilution method; format: functional
[27] = system: Escherichia coli; assay: Antibacterial activity against extended-spectrum beta-lactamase-negative Escherichia coli 09-20 by agar dilution method; format: functional
[28] = system: Staphylococcus aureus; assay: Antibacterial activity against methicillin-resistant Staphylococcus aureus ATCC 33591 by agar dilution method; format: functional
[29] = system: Klebsiella pneumoniae; assay: Antibacterial activity against Klebsiella pneumoniae ATCC BAA-2146 expressing NDM-1 by agar dilution method; format: functional
[30] = system: Citrobacter freundii; assay: Antibacterial activity against Citrobacter freundii ATCC 43864 by agar dilution method; format: functional
[31] = system: Morganella morganii; assay: Antibacterial activity against Morganella morganii ATCC 25830 by agar dilution method; format: functional
[32] = system: Staphylococcus epidermidis; assay: Antibacterial activity against methicillin-sensitive Staphylococcus epidermidis 09-9 by agar dilution method; format: functional
[33] = system: Escherichia coli; assay: Antibacterial activity against extended-spectrum beta-lactamase-positive Escherichia coli 09-1 by agar dilution method; format: functional
[34] = system: Enterococcus faecium; assay: Antibacterial activity against vancomycin-resistant Enterococcus faecium ATCC 700221 by agar dilution method; format: functional
[35] = system: Staphylococcus aureus; assay: Antibacterial activity against methicillin-resistant Staphylococcus aureus 09-13 by agar dilution method; format: functional
[36] = system: Staphylococcus aureus; assay: Antibacterial activity against methicillin-sensitive Staphylococcus aureus ATCC 29213 by agar dilution method; format: functional
[37] = system: Pseudomonas aeruginosa; assay: Antibacterial activity against Pseudomonas aeruginosa 09-14 by agar dilution method; format: functional
[38] = system: Escherichia coli; assay: Antibacterial activity against extended-spectrum beta-lactamase-negative Escherichia coli 1515 by agar dilution method; format: functional

Row | SMILES | MIC [1] [µg/mL] | MIC [2] [µg/mL] | MIC [3] [µg/mL] | MIC [4] [µg/mL] | MIC [5] [µg/mL] | MIC [6] [µg/mL] | MIC [7] [µg/mL] | MIC [8] [µg/mL] | MIC [9] [µg/mL] | MIC [10] [µg/mL] | MIC [11] [µg/mL] | MIC [12] [µg/mL] | MIC [13] [µg/mL] | MIC [14] [µg/mL] | CC50 at 48 h [15] [µg/mL] | MIC [16] [µg/mL] | MIC [17] [µg/mL] | MIC [18] [µg/mL] | MIC [19] [µg/mL] | MIC [20] [µg/mL] | further results
1 | N=C(c1ccc2cc(-c3ccc(Oc4ccc(-c5cc6ccc(C(=N)N7CCCCC7)cc6[nH]5)cc4)cc3)[nH]c2c1)N1CCCCC1 | 32 (≈ 51.5 µM) | 8 (≈ 12.9 µM) | > 128 | > 128 | 16 (≈ 25.8 µM) | > 128 | 32 (≈ 51.5 µM) | > 128 | > 128 | > 128 | > 128 | 32 (≈ 51.5 µM) | > 128 | 16 to 32 (≈ 25.8 to 51.5 µM) | 2.5 (≈ 4.03 µM) | > 128 | > 128 | 16 (≈ 25.8 µM) | 64 (≈ 103 µM) | 8 (≈ 12.9 µM) | MIC [21]: 32 µg/mL (≈ 51.5 µM); MIC [22]: > 128 µg/mL; MIC [23]: > 128 µg/mL; MIC [24]: > 128 µg/mL; MIC [25]: > 128 µg/mL; MIC [26]: > 128 µg/mL; MIC [27]: > 128 µg/mL; MIC [28]: 16 µg/mL (≈ 25.8 µM); MIC [29]: > 128 µg/mL; MIC [30]: > 128 µg/mL; MIC [31]: > 128 µg/mL; MIC [32]: 8 µg/mL (≈ 12.9 µM); MIC [33]: > 128 µg/mL; MIC [34]: 16 to 32 µg/mL (≈ 25.8 to 51.5 µM); MIC [35]: 16 µg/mL (≈ 25.8 µM); MIC [36]: 16 µg/mL (≈ 25.8 µM); MIC [37]: > 128 µg/mL; MIC [38]: > 128 µg/mL
2 | CC1CC(C)CN(C(=N)c2ccc3cc(-c4ccc(Oc5ccc(-c6cc7ccc(C(=N)N8CC(C)CC(C)C8)cc7[nH]6)cc5)cc4)[nH]c3c2)C1 (stereo unspecified) | 128 (≈ 189 µM) | 16 (≈ 23.6 µM) | > 128 | > 128 | 64 (≈ 94.5 µM) | > 128 | 64 (≈ 94.5 µM) | > 128 | > 128 | > 128 | > 128 | > 128 | > 128 | 128 (≈ 189 µM) | 2.6 (≈ 3.84 µM) | > 128 | > 128 | 64 (≈ 94.5 µM) | 64 (≈ 94.5 µM) | 16 (≈ 23.6 µM) | MIC [21]: 64 µg/mL (≈ 94.5 µM); MIC [22]: > 128 µg/mL; MIC [23]: > 128 µg/mL; MIC [24]: > 128 µg/mL; MIC [25]: > 128 µg/mL; MIC [26]: > 128 µg/mL; MIC [27]: > 128 µg/mL; MIC [28]: 64 µg/mL (≈ 94.5 µM); MIC [29]: > 128 µg/mL; MIC [30]: > 128 µg/mL; MIC [31]: > 128 µg/mL; MIC [32]: 64 µg/mL (≈ 94.5 µM); MIC [33]: > 128 µg/mL; MIC [34]: 128 µg/mL (≈ 189 µM); MIC [35]: 16 µg/mL (≈ 23.6 µM); MIC [36]: 64 µg/mL (≈ 94.5 µM); MIC [37]: > 128 µg/mL; MIC [38]: > 128 µg/mL
